Legend:
Type in all cases: cell-based
[1] = biological target: T1, hVR1 (Homo sapiens (Human), UniProt Q8NER1); test: FLIPR Ca2+ influx assay on CHO K1 cells transfected with the VR1 gene, capsaicin stimulus (method II); parameters: key to Ki (human being) Cap: result in words (NE / AG): AG=agonist; pAG=partial agonist; NE=no effect; conditions: for inhibition at 5 µM: CHO-K1, read-out: Ki (human being) Cap column: inhibition (as a percentage) @ 5 μM, capsaicin, inhibition determined at 5 μM; for Ki: capsaicin (Cap), read-out: Ki (human being) [nM] Cap
T1 sequence (Q8NER1 whole entry): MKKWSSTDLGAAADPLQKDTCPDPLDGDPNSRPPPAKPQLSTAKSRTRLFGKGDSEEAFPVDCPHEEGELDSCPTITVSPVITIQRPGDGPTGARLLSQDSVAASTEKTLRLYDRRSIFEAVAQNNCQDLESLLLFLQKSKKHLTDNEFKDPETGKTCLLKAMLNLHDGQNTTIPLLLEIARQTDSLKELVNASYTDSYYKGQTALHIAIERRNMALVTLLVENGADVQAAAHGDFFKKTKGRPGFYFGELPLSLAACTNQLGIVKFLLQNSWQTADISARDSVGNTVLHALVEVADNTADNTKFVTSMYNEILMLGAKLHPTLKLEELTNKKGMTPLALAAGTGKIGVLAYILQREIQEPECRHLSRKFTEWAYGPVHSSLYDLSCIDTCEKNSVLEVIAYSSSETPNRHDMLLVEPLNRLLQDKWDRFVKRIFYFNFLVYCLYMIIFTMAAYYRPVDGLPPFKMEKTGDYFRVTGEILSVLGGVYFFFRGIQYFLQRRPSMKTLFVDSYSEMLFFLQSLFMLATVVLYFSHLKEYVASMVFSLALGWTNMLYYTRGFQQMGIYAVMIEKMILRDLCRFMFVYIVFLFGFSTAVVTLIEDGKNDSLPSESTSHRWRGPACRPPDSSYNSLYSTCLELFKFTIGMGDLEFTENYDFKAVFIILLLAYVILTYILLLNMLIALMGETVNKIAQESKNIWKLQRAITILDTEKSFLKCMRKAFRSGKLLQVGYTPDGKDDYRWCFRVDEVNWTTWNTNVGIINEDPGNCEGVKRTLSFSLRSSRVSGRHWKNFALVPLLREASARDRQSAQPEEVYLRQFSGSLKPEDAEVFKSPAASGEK
Source text: In the process, the Ca^2+ influx is quantified in the FLIPR assay with the aid of a Ca^2+-sensitive dye (type Fluo-4, Molecular Probes Europe BV, Leiden, the Netherlands) in a fluorescent imaging plate reader (FLIPR, Molecular Devices, Sunnyvale, USA), as described hereinafter.
The agonistic or antagonistic effect of the substances to be tested on the vanilloid receptor 1 (VR1) can also be determined using the following assay. In this assay, the influx of Ca^2+ through the channel is quantified with the aid of a Ca^2+-sensitive dye (type Fluo-4, Molecular Probes Europe BV, Leiden, the Netherlands) in a fluorescent imaging plate reader (FLIPR, Molecular Devices, Sunnyvale, USA).
Chinese hamster ovary cells (CHO K1 cells, European Collection of Cell Cultures (ECACC) United Kingdom) are stably transfected with the VR1 gene. For functional testing, these cells are plated out on poly-D-lysine-coated black 96-well plates having a clear base (BD Biosciences, Heidelberg, Germany) at a density of 25,000 cells/well. The cells are incubated overnight at 37° C. and 5% CO2 in a culture medium (Ham's F12 nutrient mixture, 10% by volume of FCS (foetal calf serum), 18 μg/ml of L-proline). The next day the cells are incubated with Fluo-4 (Fluo-4 2 μM, 0.01% by volume of Pluronic F127, Molecular Probes in HBSS (Hank's buffered saline solution), Gibco Invitrogen GmbH, Karlsruhe, Germany) for 30 minutes at 37° C. Subsequently, the plates are washed three times with HBSS buffer and after further incubation for 15 minutes at RT used for Ca^2+ measurement in a FLIPR assay. The Ca^2+-dependent fluorescence is measured before and after the addition of the substances to be tested (λex wavelength=488 nm, λem=540 nm). Quantification is carried out by measuring the highest fluorescence intensity (FC, fluorescence counts) over time.
The FLIPR protocol consists of 2 substance additions. First the compounds to be tested (10 μM) are pipetted onto the cells and the Ca^2+ influx is compared with the control (capsaicin 10 μM) (% activation based on the Ca^2+ signal after the addition of 10 μM of capsaicin). After 5 minutes' incubation, 100 nM of capsaicin are applied and the Ca^2+ influx is also determined.
Desensitising agonists and antagonists led to suppression of the Ca^2+ influx.
Starting from the percentage displacement caused by different concentrations of the compounds to be tested of general formula I, IC50 inhibitory concentrations which cause a 50-percent displacement of capsaicin were calculated. Ki values for the test substances were obtained by conversion by means of the Cheng-Prusoff equation (Cheng, Prusoff; Biochem. Pharmacol. 22, 3099-3108, 1973).

[2] = biological target: rat-species vanilloid receptor 1 (VR1/TRPV1) (Rattus norvegicus (Rat), UniProt O35433); test: FLIPR Ca2+ influx assay on rat dorsal root ganglia cells, capsaicin stimulus (method I); conditions: for Ki: capsaicin (Cap)
Chain of rat-species vanilloid receptor 1 (VR1/TRPV1) (O35433 whole entry): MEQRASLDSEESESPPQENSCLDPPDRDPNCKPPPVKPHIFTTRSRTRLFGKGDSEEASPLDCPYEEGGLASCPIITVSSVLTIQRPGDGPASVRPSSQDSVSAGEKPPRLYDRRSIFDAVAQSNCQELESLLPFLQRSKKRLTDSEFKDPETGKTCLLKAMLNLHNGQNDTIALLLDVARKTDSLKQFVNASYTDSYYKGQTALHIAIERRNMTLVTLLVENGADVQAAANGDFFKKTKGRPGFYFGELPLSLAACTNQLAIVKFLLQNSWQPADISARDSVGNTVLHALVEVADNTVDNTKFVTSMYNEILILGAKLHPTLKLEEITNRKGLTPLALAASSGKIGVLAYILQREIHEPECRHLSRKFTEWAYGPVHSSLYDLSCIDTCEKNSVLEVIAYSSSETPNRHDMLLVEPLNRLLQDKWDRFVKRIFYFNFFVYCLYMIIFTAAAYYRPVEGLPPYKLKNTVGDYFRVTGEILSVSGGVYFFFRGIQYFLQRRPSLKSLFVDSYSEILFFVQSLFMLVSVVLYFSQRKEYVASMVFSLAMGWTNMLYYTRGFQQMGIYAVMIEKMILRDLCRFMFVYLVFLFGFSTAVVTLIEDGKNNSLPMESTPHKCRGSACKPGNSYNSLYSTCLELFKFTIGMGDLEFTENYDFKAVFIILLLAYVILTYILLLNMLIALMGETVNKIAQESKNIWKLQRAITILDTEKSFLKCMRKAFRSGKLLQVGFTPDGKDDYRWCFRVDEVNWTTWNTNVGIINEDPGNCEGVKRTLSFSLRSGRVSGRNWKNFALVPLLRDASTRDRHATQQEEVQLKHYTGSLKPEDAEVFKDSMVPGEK
Experimental: The agonistic or antagonistic effect of the substances to be tested on the rat-species vanilloid receptor 1 (VR1/TRPV1) can be determined using the following assay. In this assay, the influx of Ca^2+ through the receptor channel is quantified with the aid of a Ca^2+-sensitive dye (type Fluo-4, Molecular Probes Europe BV, Leiden, the Netherlands) in a fluorescent imaging plate reader (FLIPR, Molecular Devices, Sunnyvale, USA).
Complete medium: 50 ml HAMS F12 nutrient mixture (Gibco Invitrogen GmbH, Karlsruhe, Germany) with
10% by volume of FCS (foetal calf serum, Gibco Invitrogen GmbH, Karlsruhe, Germany, heat-inactivated);
2 mM L-glutamine (Sigma, Munich, Germany);
1% by weight of AA solution (antibiotic/antimyotic solution, PAA, Pasching, Austria) and 25 ng/ml NGF medium (2.5 S, Gibco Invitrogen GmbH, Karlsruhe, Germany)
Cell culture plate: Poly-D-lysine-coated, black 96-well plates having a clear base (96-well black/clear plate, BD Biosciences, Heidelberg, Germany) are additionally coated with laminin (Gibco Invitrogen GmbH, Karlsruhe, Germany), the laminin being diluted with PBS (Ca—Mg-free PBS, Gibco Invitrogen GmbH, Karlsruhe, Germany) to a concentration of 100 μg/ml. Aliquots having a laminin concentration of 100 μg/ml are removed and stored at −20° C. The aliquots are diluted with PBS in a ratio of 1:10 to 10 μg/ml of laminin and respectively 50 μL of the solution are pipetted into a recess in the cell culture plate. The cell culture plates are incubated for at least two hours at 37° C., the excess solution is removed by suction and the recesses are each washed twice with PBS. The coated cell culture plates are stored with excess PBS which is not removed until just before the feeding of the cells.
The vertebral column is removed from decapitated rats and placed immediately into cold HBSS buffer (Hank's buffered saline solution, Gibco Invitrogen GmbH, Karlsruhe, Germany), i.e. buffer located in an ice bath, mixed with 1% by volume (percent by volume) of an AA solution (antibiotic/antimyotic solution, PAA, Pasching, Austria). The vertebral column is cut longitudinally and removed together with fasciae from the vertebral canal. Subsequently, the dorsal root ganglia (DRG) are removed and again stored in cold HBSS buffer mixed with 1% by volume of an AA solution. The DRG, from which all blood remnants and spinal nerves have been removed, are transferred in each case to 500 μL of cold type 2 collagenase (PAA, Pasching, Austria) and incubated for 35 minutes at 37° C. After the addition of 2.5% by volume of trypsin (PAA, Pasching, Austria), incubation is continued for 10 minutes at 37° C. After complete incubation, the enzyme solution is carefully pipetted off and 500 μL of complete medium are added to each of the remaining DRG. […] The contents of each Falcon tube are respectively filtered through a 70 μm Falcon filter element and centrifuged for 10 minutes at 1,200 rpm and RT. The resulting pellet is respectively taken up in 250 μL of complete medium and the cell count is determined.
The number of cells in the suspension is set to 3×10^5 per ml and 150 μL of this suspension are in each case introduced into a recess in the cell culture plates coated as described hereinbefore. […] Subsequently, the cells are loaded with 2 μM of Fluo-4 and 0.01% by volume of Pluronic F127 (Molecular Probes Europe BV, Leiden, the Netherlands) in HBSS buffer (Hank's buffered saline solution, Gibco Invitrogen GmbH, Karlsruhe, Germany) for 30 min at 37° C., washed 3 times with HBSS buffer and after further incubation for 15 minutes at RT used for Ca^2+ measurement in a FLIPR assay. The Ca^2+-dependent fluorescence is in this case measured before and after the addition of substances (λex=488 nm, λem=540 nm). Quantification is carried out by measuring the highest fluorescence intensity (FC, fluorescence counts) over time.
The FLIPR protocol consists of 2 substance additions.

[3] = biological target: T1, hVR1; test: FLIPR assay hVR1, after pH stimulus; parameters: key to IC50 (human being) hVR1 pH: result in words (NE / AG): AG=agonist; pAG=partial agonist; NE=no effect; conditions: for inhibition at 10 µM: read-out: IC50 (human being) hVR1 pH: inhibition (as a percentage) @ 10 μM, inhibition determined at 10 μM
Experimental: In this assay, the influx of Ca^2+ through the channel is quantified with the aid of a Ca^2+-sensitive dye (type Fluo-4, Molecular Probes Europe BV, Leiden, the Netherlands) in a fluorescent imaging plate reader (FLIPR, Molecular Devices, Sunnyvale, USA). Chinese hamster ovary cells (CHO K1 cells, European Collection of Cell Cultures (ECACC) United Kingdom) are stably transfected with the VR1 gene. For functional testing, these cells are plated out on poly-D-lysine-coated black 96-well plates having a clear base (BD Biosciences, Heidelberg, Germany) at a density of 25,000 cells/well. […] Subsequently, the plates are washed three times with HBSS buffer and after further incubation for 15 minutes at RT used for Ca^2+ measurement in a FLIPR assay. […] Quantification is carried out by measuring the highest fluorescence intensity (FC, fluorescence counts) over time. The FLIPR protocol consists of 2 substance additions. […] Desensitising agonists and antagonists led to suppression of the Ca^2+ influx. […] Ki values for the test substances were obtained by conversion by means of the Cheng-Prusoff equation (Cheng, Prusoff; Biochem. Pharmacol. 22, 3099-3108, 1973).

IC50 (human being) hVR1 pH: result in words (NE / AG) [3] | Ki [1] | Ki [2] | Compound | other results
NE |  |  | C[C@H](C(=O)NCc1cc(C(C)(C)C)nn1C)c1ccc(NS(C)(=O)=O)c(F)c1 [Example 4, (S)-N-((3-tert-butyl-1-methyl-1H-pyrazol-5-yl)methyl)-2-(3-fluoro-4-(methylsulphonamido)phenyl)propanamide] | inhibition at 5 µM [1]: 9%; inhibition at 5 µM ([2]; read-out: Ki (rat) Cap: inhibition (as a percentage) @ 5 μM, capsaicin, inhibition determined at 5 μM): 20%
 | 75.2 nM | 25.9 nM | CC(C(=O)NCc1cc(C(C)(C)C)nn1-c1ccc(C(C)(C)C)cc1)c1ccc(NS(C)(=O)=O)c(F)c1 (stereo not shown) [Example 13, N-((3-tert-butyl-1-(4-tert-butylphenyl)-1H-pyrazol-5-yl)methyl)-2-(3-fluoro-4-(methylsulphonamido)phenyl)propanamide] | 
NE | 21.6 nM | 0.35 nM | CC(C(=O)NCc1cc(C(C)(C)C)nn1C1CCCCC1)c1ccc(NS(C)(=O)=O)c(F)c1 (stereo not shown) [Example 7, N-((3-tert-butyl-1-cyclohexyl-1H-pyrazol-5-yl)methyl)-2-(3-fluoro-4-(methylsulphonamido)phenyl)propanamide] | 
 | 2.1 nM | 2.5 nM | C[C@H](C(=O)NCc1cc(C(C)(C)C)nn1-c1ccc(Cl)cc1)c1ccc(NS(C)(=O)=O)c(F)c1 [Example 15, (S)-N-((3-tert-butyl-1-(4-chlorophenyl)-1H-pyrazol-5-yl)methyl)-2-(3-fluoro-4-(methylsulphonamido)phenyl)propanamide] | inhibition at 5 µM ([3]; read-out: IC50 (human being) hVR1 pH column: inhibition (as a percentage) @ 5 μM, inhibition determined at 5 μM): 14%
NE | 2.2 nM | 1.2 nM | COc1cc(C(C)C(=O)NCc2cc(C(C)(C)C)nn2-c2cccc(Cl)c2)ccc1NS(C)(=O)=O (stereo not shown) [Example 27, N-((3-tert-butyl-1-(3-chlorophenyl)-1H-pyrazol-5-yl)methyl)-2-(3-methoxy-4-(methylsulphonamido)phenyl)propanamide] | 
 |  |  | Cc1ccc(-n2nc(C(C)(C)C)cc2CNC(=O)C(C)c2ccc(NS(C)(=O)=O)c(F)c2)cc1 (stereo not shown) [Example 12, N-((3-tert-butyl-1-p-tolyl-1H-pyrazol-5-yl)methyl)-2-(3-fluoro-4-(methylsulphonamido)phenyl)propanamide] | inhibition at 10 µM [3]: 40%
NE | 114 nM |  | CC(C(=O)NCc1cc(C(C)(C)C)nn1-c1cccc(Cl)c1)c1ccc(N2CCCS2(=O)=O)c(F)c1 (stereo not shown) [Example 55, N-((3-tert-butyl-1-(3-chlorophenyl)-1H-pyrazol-5-yl)methyl)-2-[4-(1,1-dioxidoisothiazolidin-2-yl)-3-fluorophenyl]propanamide] | 
 |  |  | COc1c(F)cc(NC(=O)NCc2cc(C(C)(C)C)nn2-c2cccc(Cl)c2)cc1F [Example 61, 1-((3-tert-butyl-1-(3-chlorophenyl)-1H-pyrazol-5-yl)methyl)-3-(3,5-difluoro-4-methoxyphenyl)urea] | Ki (human being) Cap: result in words (NE / AG) ([1]; capsaicin): AG
 | 31.4 nM |  | O=C(NCc1cc(C(F)(F)F)nn1-c1cccc(Cl)c1)Nc1ccc(C2CC2)c(F)c1 [Example 126, 1-((1-(3-chlorophenyl)-3-(trifluoromethyl)-1H-pyrazol-5-yl)methyl)-3-(4-cyclopropyl-3-fluorophenyl)urea] | 
 |  |  | O=C(NCc1cc(C(F)(F)F)nn1-c1cccc(Cl)c1)C1(c2cccc(F)c2)CCCC1 [Example 120, N-((1-(3-chlorophenyl)-3-(trifluoromethyl)-1H-pyrazol-5-yl)methyl)-1-(3-fluorophenyl)cyclopentancarboxamide] | inhibition at 1 µM ([1]; CHO-K1, read-out: Ki (human being) inhibition (as a percentage) @ 1 μM, capsaicin, inhibition determined at 1 μM): 6%
 |  |  | CC(C)(C)c1cc(CNC(=O)Cc2cccc(F)c2)n(NCC(F)(F)F)n1 [Example 133, N-((3-tert-butyl-1-(2,2,2-trifluoroethylamino)-1H-pyrazol-5-yl)methyl)-2-(3-fluorophenyl)acetamide] | inhibition at 5 µM [1]: 12%
 |  |  | C[C@H](C(=O)NCc1cc(C(C)(C)C)nn1-c1cccc(Cl)c1)c1ccc(NS(C)(=O)=O)c(F)c1 [Example 17, (S)-N-((3-tert-butyl-1-(3-chlorophenyl)-1H-pyrazol-5-yl)methyl)-2-(3-fluoro-4-(methylsulphonamido)phenyl)propanamide] | inhibition at 10 µM [3]: 37%

— patent publication US9120756B2, “Substituted phenylureas and phenylamides as vanilloid receptor ligands” (Gruenenthal GmbH, priority 2009, dated 2015)
